In brackets after ≈: the same amount, converted by molar mass. Read-outs that look alike come from different tables or passages of the source. Values belong to the molecule of their own block, whether it stands above or below them.
Columns and labels:
Acinetobacter baumannii = assay: MIC, CLSI broth microdilution, Acinetobacter baumannii panel; assay type: cell-based; settings: Acinetobacter baumannii, read-out: MIC
Protocol: (§1) Minimum inhibitory concentrations (MIC) were determined by reference Clinical and Laboratory Standards Institute (CLSI) broth microdilution methods per M7-A7 [2006]. Quality control ranges utilizing E. coli ATCC 25922, P. aeruginosa ATCC 27853 and S. aureus ATCC 29213, and interpretive criteria for comparator agents were as published in CLSI M100-S17 [2007]. Briefly, serial two-fold dilutions of the test compounds were prepared at 2× concentration in Mueller Hinton Broth. The compound dilutions were mixed in 96-well assay plates in a 1:1 ratio with bacterial inoculum. The inoculum was prepared by suspension of a colony from an agar plate that was prepared the previous day. Bacteria were suspended in sterile saline and added to each assay plate to obtain a final concentration of 5×10^5 CFU/mL. The plates were incubated at 35 C for 20 hours in ambient air.
The MIC panel presented in Table 2 contains 29 isolates of Acinetobacter baumannii: strains 1-24 are clinical isolates from around the world collected between 2004-2007 which contain representative resistance mechanisms commonly found in Acinetobacter baumannii, such as AAC(3)-I and II, AAC(6′)-I, ANT(2″)-I, APH(3′)-VI, and perm/efflux; strains 25-29 are susceptible.

Pseudomonas aeruginosa = assay: MIC, CLSI broth microdilution, Pseudomonas aeruginosa panel; assay type: cell-based; settings: Pseudomonas aeruginosa, read-out: MIC
Protocol: as §1
The MIC panel presented in Table 1 contains 27 isolates of Pseudomonas aeruginosa: strains 1-22 are clinical isolates from around the world collected between 2004-2007 which contain representative resistance mechanisms commonly found in Pseudomonas, such as the AAC(6′)-I, AAC(6′)-II, APH(3′)-IIb, ANT(2″)-I, and perm/efflux; strains 23-27 are susceptible.

[1] = A. baumannii clinical strain 1 (resistant clinical isolate)
[2] = A. baumannii clinical strain 2 (resistant clinical isolate)
[3] = A. baumannii clinical strain 3 (resistant clinical isolate)
[4] = A. baumannii clinical strain 4 (resistant clinical isolate)
[5] = A. baumannii clinical strain 5 (resistant clinical isolate)
[6] = A. baumannii clinical strain 6 (resistant clinical isolate)
[7] = A. baumannii clinical strain 7 (resistant clinical isolate)
[8] = A. baumannii clinical strain 8 (resistant clinical isolate)
[9] = A. baumannii clinical strain 9 (resistant clinical isolate)
[10] = A. baumannii clinical strain 10 (resistant clinical isolate)
[11] = A. baumannii clinical strain 11 (resistant clinical isolate)
[12] = A. baumannii clinical strain 12 (resistant clinical isolate)
[13] = A. baumannii clinical strain 13 (resistant clinical isolate)
[14] = A. baumannii clinical strain 14 (resistant clinical isolate)
[15] = A. baumannii clinical strain 15 (resistant clinical isolate)
[16] = A. baumannii clinical strain 16 (resistant clinical isolate)
[17] = A. baumannii clinical strain 17 (resistant clinical isolate)
[18] = A. baumannii clinical strain 18 (resistant clinical isolate)
[19] = A. baumannii clinical strain 19 (resistant clinical isolate)
[20] = A. baumannii clinical strain 20 (resistant clinical isolate)
[21] = A. baumannii clinical strain 21 (resistant clinical isolate)
[22] = A. baumannii clinical strain 22 (resistant clinical isolate)
[23] = A. baumannii clinical strain 23 (resistant clinical isolate)
[24] = A. baumannii clinical strain 24 (resistant clinical isolate)
[25] = A. baumannii strain 25 (susceptible)
[26] = A. baumannii strain 26 (susceptible)
[27] = A. baumannii strain 27 (susceptible)
[28] = A. baumannii strain 28 (susceptible)
[29] = A. baumannii strain 29 (susceptible)
[30] = P. aeruginosa clinical strain 1 (resistant clinical isolate)
[31] = P. aeruginosa clinical strain 2 (resistant clinical isolate)
[32] = P. aeruginosa clinical strain 3 (resistant clinical isolate)
[33] = P. aeruginosa clinical strain 4 (resistant clinical isolate)
[34] = P. aeruginosa clinical strain 5 (resistant clinical isolate)
[35] = P. aeruginosa clinical strain 6 (resistant clinical isolate)
[36] = P. aeruginosa clinical strain 7 (resistant clinical isolate)
[37] = P. aeruginosa clinical strain 8 (resistant clinical isolate)
[38] = P. aeruginosa clinical strain 9 (resistant clinical isolate)
[39] = P. aeruginosa clinical strain 10 (resistant clinical isolate)
[40] = P. aeruginosa clinical strain 11 (resistant clinical isolate)
[41] = P. aeruginosa clinical strain 12 (resistant clinical isolate)
[42] = P. aeruginosa clinical strain 13 (resistant clinical isolate)
[43] = P. aeruginosa clinical strain 14 (resistant clinical isolate)
[44] = P. aeruginosa clinical strain 15 (resistant clinical isolate)
[45] = P. aeruginosa clinical strain 16 (resistant clinical isolate)
[46] = P. aeruginosa clinical strain 17 (resistant clinical isolate)
[47] = P. aeruginosa clinical strain 18 (resistant clinical isolate)
[48] = P. aeruginosa clinical strain 19 (resistant clinical isolate)
[49] = P. aeruginosa clinical strain 20 (resistant clinical isolate)
[50] = P. aeruginosa clinical strain 21 (resistant clinical isolate)
[51] = P. aeruginosa clinical strain 22 (resistant clinical isolate)
[52] = P. aeruginosa strain 23 (susceptible)
[53] = P. aeruginosa strain 24 (susceptible)
[54] = P. aeruginosa strain 25 (susceptible)
[55] = P. aeruginosa strain 26 (susceptible)
[56] = P. aeruginosa strain 27 (susceptible)

MIC (Acinetobacter baumannii; [1]): ≥ 32 µg/mL | MIC (Acinetobacter baumannii; [2]): ≥ 32 µg/mL | MIC (Acinetobacter baumannii; [3]): ≥ 32 µg/mL | MIC (Acinetobacter baumannii; [4]): ≥ 32 µg/mL | MIC (Acinetobacter baumannii; [5]): ≥ 32 µg/mL | MIC (Acinetobacter baumannii; [6]): ≥ 32 µg/mL | MIC (Acinetobacter baumannii; [7]): 1 to 8 µg/mL (≈ 2.14 to 17.1 µM) | MIC (Acinetobacter baumannii; [8]): ≥ 32 µg/mL | MIC (Acinetobacter baumannii; [9]): ≥ 32 µg/mL | MIC (Acinetobacter baumannii; [10]): ≥ 32 µg/mL | MIC (Acinetobacter baumannii; [11]): ≥ 32 µg/mL | MIC (Acinetobacter baumannii; [12]): 16 to 32 µg/mL (≈ 34.2 to 68.4 µM) | MIC (Acinetobacter baumannii; [13]): ≤ 1 µg/mL | MIC (Acinetobacter baumannii; [14]): ≤ 1 µg/mL | MIC (Acinetobacter baumannii; [15]): ≤ 1 µg/mL | MIC (Acinetobacter baumannii; [16]): 1 to 8 µg/mL (≈ 2.14 to 17.1 µM) | MIC (Acinetobacter baumannii; [17]): ≤ 1 µg/mL | MIC (Acinetobacter baumannii; [18]): 1 to 8 µg/mL (≈ 2.14 to 17.1 µM) | MIC (Acinetobacter baumannii; [19]): ≤ 1 µg/mL | MIC (Acinetobacter baumannii; [20]): 1 to 8 µg/mL (≈ 2.14 to 17.1 µM) | MIC (Acinetobacter baumannii; [21]): ≥ 32 µg/mL | MIC (Acinetobacter baumannii; [22]): ≥ 32 µg/mL | MIC (Acinetobacter baumannii; [23]): ≥ 32 µg/mL | MIC (Acinetobacter baumannii; [24]): ≥ 32 µg/mL | MIC (Acinetobacter baumannii; [25]): ≤ 1 µg/mL | MIC (Acinetobacter baumannii; [26]): ≤ 1 µg/mL | MIC (Acinetobacter baumannii; [27]): ≤ 1 µg/mL | MIC (Acinetobacter baumannii; [28]): ≤ 1 µg/mL | MIC (Acinetobacter baumannii; [29]): ≤ 1 µg/mL | MIC (Pseudomonas aeruginosa; [30]): ≥ 32 µg/mL | MIC (Pseudomonas aeruginosa; [31]): 16 to 32 µg/mL (≈ 34.2 to 68.4 µM) | MIC (Pseudomonas aeruginosa; [32]): ≥ 32 µg/mL | MIC (Pseudomonas aeruginosa; [33]): ≥ 32 µg/mL | MIC (Pseudomonas aeruginosa; [34]): ≥ 32 µg/mL | MIC (Pseudomonas aeruginosa; [35]): ≥ 32 µg/mL | MIC (Pseudomonas aeruginosa; [36]): ≥ 32 µg/mL | MIC (Pseudomonas aeruginosa; [37]): ≥ 32 µg/mL | MIC (Pseudomonas aeruginosa; [38]): ≥ 32 µg/mL | MIC (Pseudomonas aeruginosa; [39]): ≥ 32 µg/mL | MIC (Pseudomonas aeruginosa; [40]): 8 to 16 µg/mL (≈ 17.1 to 34.2 µM) | MIC (Pseudomonas aeruginosa; [41]): ≥ 32 µg/mL | MIC (Pseudomonas aeruginosa; [42]): ≥ 32 µg/mL | MIC (Pseudomonas aeruginosa; [43]): ≥ 32 µg/mL | MIC (Pseudomonas aeruginosa; [44]): ≥ 32 µg/mL | MIC (Pseudomonas aeruginosa; [45]): ≥ 32 µg/mL | MIC (Pseudomonas aeruginosa; [46]): ≥ 32 µg/mL | MIC (Pseudomonas aeruginosa; [47]): ≥ 32 µg/mL | MIC (Pseudomonas aeruginosa; [48]): ≥ 32 µg/mL | MIC (Pseudomonas aeruginosa; [49]): 1 to 8 µg/mL (≈ 2.14 to 17.1 µM) | MIC (Pseudomonas aeruginosa; [50]): ≤ 1 µg/mL | MIC (Pseudomonas aeruginosa; [51]): ≤ 1 µg/mL | MIC (Pseudomonas aeruginosa; [52]): ≤ 1 µg/mL | MIC (Pseudomonas aeruginosa; [53]): ≤ 1 µg/mL | MIC (Pseudomonas aeruginosa; [54]): ≤ 1 µg/mL | MIC (Pseudomonas aeruginosa; [55]): ≤ 1 µg/mL | MIC (Pseudomonas aeruginosa; [56]): 1 to 8 µg/mL (≈ 2.14 to 17.1 µM)
SMILES: NC[C@H]1O[C@H](O[C@H]2[C@H](O)[C@@H](O[C@H]3O[C@H](CO)[C@@H](O)[C@H](N)[C@H]3O)[C@H](N)C[C@@H]2N)[C@H](N)C[C@@H]1O [TOB, tobramycin]

MIC (Acinetobacter baumannii; [1]): ≥ 32 µg/mL | MIC (Acinetobacter baumannii; [2]): ≥ 32 µg/mL | MIC (Acinetobacter baumannii; [3]): 8 to 16 µg/mL (≈ 13.7 to 27.3 µM) | MIC (Acinetobacter baumannii; [4]): 16 to 32 µg/mL (≈ 27.3 to 54.6 µM) | MIC (Acinetobacter baumannii; [5]): ≥ 32 µg/mL | MIC (Acinetobacter baumannii; [6]): ≥ 32 µg/mL | MIC (Acinetobacter baumannii; [7]): ≥ 32 µg/mL | MIC (Acinetobacter baumannii; [8]): ≥ 32 µg/mL | MIC (Acinetobacter baumannii; [9]): 1 to 8 µg/mL (≈ 1.71 to 13.7 µM) | MIC (Acinetobacter baumannii; [10]): 1 to 8 µg/mL (≈ 1.71 to 13.7 µM) | MIC (Acinetobacter baumannii; [11]): ≥ 32 µg/mL | MIC (Acinetobacter baumannii; [12]): ≥ 32 µg/mL | MIC (Acinetobacter baumannii; [13]): ≥ 32 µg/mL | MIC (Acinetobacter baumannii; [14]): ≥ 32 µg/mL | MIC (Acinetobacter baumannii; [15]): ≥ 32 µg/mL | MIC (Acinetobacter baumannii; [16]): ≥ 32 µg/mL | MIC (Acinetobacter baumannii; [17]): ≥ 32 µg/mL | MIC (Acinetobacter baumannii; [18]): ≥ 32 µg/mL | MIC (Acinetobacter baumannii; [19]): 1 to 8 µg/mL (≈ 1.71 to 13.7 µM) | MIC (Acinetobacter baumannii; [20]): 1 to 8 µg/mL (≈ 1.71 to 13.7 µM) | MIC (Acinetobacter baumannii; [21]): ≥ 32 µg/mL | MIC (Acinetobacter baumannii; [22]): ≥ 32 µg/mL | MIC (Acinetobacter baumannii; [23]): ≥ 32 µg/mL | MIC (Acinetobacter baumannii; [24]): ≥ 32 µg/mL | MIC (Acinetobacter baumannii; [25]): ≤ 1 µg/mL | MIC (Acinetobacter baumannii; [26]): 1 to 8 µg/mL (≈ 1.71 to 13.7 µM) | MIC (Acinetobacter baumannii; [27]): 1 to 8 µg/mL (≈ 1.71 to 13.7 µM) | MIC (Acinetobacter baumannii; [28]): 1 to 8 µg/mL (≈ 1.71 to 13.7 µM) | MIC (Acinetobacter baumannii; [29]): ≤ 1 µg/mL | MIC (Pseudomonas aeruginosa; [30]): ≥ 32 µg/mL | MIC (Pseudomonas aeruginosa; [31]): ≥ 32 µg/mL | MIC (Pseudomonas aeruginosa; [32]): ≥ 32 µg/mL | MIC (Pseudomonas aeruginosa; [33]): ≥ 32 µg/mL | MIC (Pseudomonas aeruginosa; [34]): ≥ 32 µg/mL | MIC (Pseudomonas aeruginosa; [35]): 8 to 16 µg/mL (≈ 13.7 to 27.3 µM) | MIC (Pseudomonas aeruginosa; [36]): 1 to 8 µg/mL (≈ 1.71 to 13.7 µM) | MIC (Pseudomonas aeruginosa; [37]): 16 to 32 µg/mL (≈ 27.3 to 54.6 µM) | MIC (Pseudomonas aeruginosa; [38]): 8 to 16 µg/mL (≈ 13.7 to 27.3 µM) | MIC (Pseudomonas aeruginosa; [39]): 16 to 32 µg/mL (≈ 27.3 to 54.6 µM) | MIC (Pseudomonas aeruginosa; [40]): ≤ 1 µg/mL | MIC (Pseudomonas aeruginosa; [41]): ≤ 1 µg/mL | MIC (Pseudomonas aeruginosa; [42]): 1 to 8 µg/mL (≈ 1.71 to 13.7 µM) | MIC (Pseudomonas aeruginosa; [43]): 1 to 8 µg/mL (≈ 1.71 to 13.7 µM) | MIC (Pseudomonas aeruginosa; [44]): 8 to 16 µg/mL (≈ 13.7 to 27.3 µM) | MIC (Pseudomonas aeruginosa; [45]): ≥ 32 µg/mL | MIC (Pseudomonas aeruginosa; [46]): ≥ 32 µg/mL | MIC (Pseudomonas aeruginosa; [47]): ≥ 32 µg/mL | MIC (Pseudomonas aeruginosa; [48]): ≥ 32 µg/mL | MIC (Pseudomonas aeruginosa; [49]): ≥ 32 µg/mL | MIC (Pseudomonas aeruginosa; [50]): 16 to 32 µg/mL (≈ 27.3 to 54.6 µM) | MIC (Pseudomonas aeruginosa; [51]): 16 to 32 µg/mL (≈ 27.3 to 54.6 µM) | MIC (Pseudomonas aeruginosa; [52]): 1 to 8 µg/mL (≈ 1.71 to 13.7 µM) | MIC (Pseudomonas aeruginosa; [53]): 1 to 8 µg/mL (≈ 1.71 to 13.7 µM) | MIC (Pseudomonas aeruginosa; [54]): 1 to 8 µg/mL (≈ 1.71 to 13.7 µM) | MIC (Pseudomonas aeruginosa; [55]): 1 to 8 µg/mL (≈ 1.71 to 13.7 µM) | MIC (Pseudomonas aeruginosa; [56]): ≤ 1 µg/mL
SMILES: NCC[C@H](O)C(=O)N[C@@H]1C[C@H](N)[C@@H](O[C@H]2O[C@H](CN)[C@@H](O)[C@H](O)[C@H]2O)[C@H](O)[C@H]1O[C@H]1O[C@H](CO)[C@@H](O)[C@H](N)[C@H]1O [AMK, amikacin]

Source: patent publication US8653041B2, “Antibacterial aminoglycoside analogs” (Achaogen, Inc., priority 2010, dated 2014)
